Test results published in US8716480B2, “7-aryl-1,2,4-triazolo[4,3-a]pyridine derivatives and their use as positive allosteric modulators of mGluR2 receptors” (Janssen Pharmaceuticals, Inc., priority 2009, dated 2014).
Where two headings read alike, the source gives them in different places.

Experiments:
rats = test: Sleep wake electroencephalography (SW-EEG) in rats; format: in vivo; details: 3 mg/kg, p.o.
Text: Sleep Wake Electroencephalography (SW-EEG) in Rats SW-EEG analyses are a highly sensitive read-out of a compound's central functional activity that may provide additional insight in the potential therapeutic application (i.e. via drug classification fingerprinting). […] Internal efforts have confirmed that this effect is mGlu2 receptor-mediated, i.e. is absent in mGlu2 KO mice. Sleep abnormalities are often associated with CNS disorders; as such, the potential use of mGlu2 modulators could also have benefit in the treatment of CNS disorders in which (REM) sleep aberrations are manifested. More specifically, the combination of a persistent reduction in REM occurrence and an increase in REM latency is one of the key features of the typical SW architecture fingerprint of most clinically active antidepressants.
We investigated the effects of oral administration of compounds according to the invention on SW organization in rats. The mGlu2/3 receptor agonist LY404039 was also evaluated to allow comparison.

Male mice (C57BL/6) = test: Reversal of memantine-induced brain activation ([14C]2DG uptake) in mice; format: in vivo; details: for L.A.D. (lowest active dose) for significant (p<0.05) reduction of 2DG uptake in the hippocampus compared to memantine response: mice, s.c., memantine 20 mg/kg s.c.
Procedure: Reversal of Memantine-Induced Brain Activation in Mice NMDA receptor hypofunction is hypothesized to be involved in schizophrenia.
Autoradiographic assessment of radiolabeled [^14C]-2-deoxyglucose ([^14C]2DG) uptake is commonly used to investigate brain activation. In humans, cerebral blood flow is increased in specific brain regions after administration of a subanaesthetic dose of ketamine.
Male mice (C57BL/6, weight 24-28 g, fasted overnight; n=10 animals per group) were treated with vehicle or test compound (s.c.) in randomized order (t=0 min). Memantine (20 mg/kg, s.c.) was injected 30 min later (t=30 min). At t=45 min, [^14C]2DG (0.16 μCi/g) was administered intraperitoneally (i.p.), followed by a 45 min uptake period. Animals were decapitated (t=90 min), plasma glucose levels measured, the brain removed, rapidly frozen and stored at −20° C. until sectioned. Brain sections were exposed together to a precalibrated [^14C]standard on film, which was developed after four days of exposure. Local tissue [^14C]concentration (nCi/mg tissue equivalent—TEQ-) in each region of interest was determined.
Data was analyzed statistically using a two-way ANOVA analysis followed by post-hoc tests (memantine response versus reversal by the compound). The results are shown in table 5 below, expressed as lowest active dose (L.A.D.) required to exert a statistically significant (p<0.05) reduction of 2DG uptake in the hippocampus compared to memantine response.

male NMRI mice [1] = test: Phencyclidine (PCP)-induced hyperlocomotion in mice; format: in vivo; details: Mus musculus; mice; PCP 5 mg/kg s.c.; criterion total distance <5500 counts; not marked as oral; read-out: ED50 PCP-Inh.
Procedure: (§1) On the day of experiments, the mice were brought into the procedural room. They were housed individually and allowed to acclimate for at least a half hour prior to testing. Although the studies were conducted during the light cycle (from 8:00 to 16:00 h), the procedure room was only sparsely lit (3 to 30 LUX) to provide better contrast for the video tracking. Local lighting was used for the injection procedures. During each trial, an individual mouse was placed in an open field arena (grey PVC cylinder with a height of 40 cm and a diameter of 22.5 cm). Each arena was placed on an infrared LED (8×8 LEDs)-lit box (white PVC squared box; 40×40 cm^2; height 12.5 cm). Each mouse was placed in the center of the arena and allowed to explore freely for 30 min. After each trial, the arena was cleaned with a wet and subsequently with a dry cleaning cloth. An infrared sensitive tube camera and a white light source (in arena: 4-7 LUX) were mounted to the ceiling above the observation chamber to record and input activity to a computer. Animal behavior was recorded and analyzed using the Noldus Ethovision XT Video Tracking System (Version 3.1; Noldus, Wageningen, The Netherlands). The total distance traveled (cm) was calculated. Data were then exported to data management systems for further analysis and reporting.
Test compound or solvent was administered at a pre-defined time before measurement (standard: 30 min) to male NMRI mice that were challenged with phencyclidine (PCP; 5 mg/kg, s.c.) 30 min before measurement. Activity was measured for a period of 30 min.

human mGluR2 receptor = biological target: T1, human mGluR2 receptor (Homo sapiens, UniProt Q14416); test: [35S]GTPγS binding assay (PAM); format: biochemical; details: in presence of glutamate at predetermined EC20; membranes from CHO cells transfected with human mGluR2; read-out: GTPγS -hR2 PAM pEC50 (converted)
T1 construct: expressed in transfected cells; host or cells: CHO cells (membranes)
T1 sequence (Q14416 19-872): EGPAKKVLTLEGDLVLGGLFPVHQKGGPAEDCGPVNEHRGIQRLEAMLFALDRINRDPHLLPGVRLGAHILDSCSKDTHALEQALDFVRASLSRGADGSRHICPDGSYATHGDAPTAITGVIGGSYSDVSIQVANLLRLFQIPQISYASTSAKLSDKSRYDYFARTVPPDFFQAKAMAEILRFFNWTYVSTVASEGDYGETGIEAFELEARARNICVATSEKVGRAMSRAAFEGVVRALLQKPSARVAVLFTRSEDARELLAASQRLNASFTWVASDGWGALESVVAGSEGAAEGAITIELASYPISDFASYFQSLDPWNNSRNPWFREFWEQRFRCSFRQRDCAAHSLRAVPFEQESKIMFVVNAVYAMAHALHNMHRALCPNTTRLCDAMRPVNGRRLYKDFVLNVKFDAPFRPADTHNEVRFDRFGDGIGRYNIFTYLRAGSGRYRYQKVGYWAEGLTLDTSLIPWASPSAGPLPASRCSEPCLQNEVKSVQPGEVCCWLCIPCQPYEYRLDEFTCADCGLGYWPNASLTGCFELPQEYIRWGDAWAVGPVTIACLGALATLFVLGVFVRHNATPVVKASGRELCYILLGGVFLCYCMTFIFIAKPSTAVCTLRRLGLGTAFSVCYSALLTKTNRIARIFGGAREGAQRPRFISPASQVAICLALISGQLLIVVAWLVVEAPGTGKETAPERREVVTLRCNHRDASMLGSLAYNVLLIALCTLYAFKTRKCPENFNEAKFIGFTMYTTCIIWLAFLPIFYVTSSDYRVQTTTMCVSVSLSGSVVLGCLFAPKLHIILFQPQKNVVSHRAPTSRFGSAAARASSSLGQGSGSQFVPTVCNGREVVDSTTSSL
Procedure: [^35S]GTPγS binding assay
The [^35S]GTPγS binding assay is a functional membrane-based assay used to study G-protein coupled receptor (GPCR) function whereby incorporation of a non-hydrolysable form of GTP, [^35S]GTPγS (guanosine 5′-triphosphate, labelled with […] ^35S), is measured.
CHO-cells were cultured to pre-confluence and stimulated with 5 mM butyrate for 24 h, prior to washing in PBS, and then collected by scraping in homogenisation buffer (50 mM Tris-HCl buffer, pH 7.4, 4° C.). Cell lysates were homogenized briefly using an ultra-turrax homogenizer. The homogenate was centrifuged at 16,000 RPM (Sorvall RC-5C plus rotor SS-34) for 10 minutes and the supernatant discarded. The pellet was resuspended in 5 mM Tris-HCl, pH 7.4 and centrifuged again (18,000 RPM, 20 min, 4° C.). The final pellet was resuspended in 50 mM Tris-HCl, pH 7.4 and stored at −80° C. in appropriate aliquots before use. Protein concentration was determined by the Bradford method (Bio-Rad, USA) with bovine serum albumin as standard.
Measurement of mGluR2 positive allosteric modulatory activity of test compounds was performed as follows. Test compounds and glutamate were diluted in assay buffer containing 10 mM HEPES acid, 10 mM HEPES salt, pH 7.4, 100 mM NaCl, 3 mM MgCl2 and 10 μM GDP. Human mGlu2 receptor-containing membranes were thawed on ice and diluted in assay buffer supplemented with 14 μg/ml saponin. Membranes were pre-incubated with compound alone or together with a predefined (˜EC20) concentration of glutamate (PAM assay) for 30 min at 30° C. After addition of [^35S]GTPγS (f.c. 0.1 nM) microplates were shaken briefly and further incubated to allow [^35S]GTPγS incorporation on activation (30 minutes, 30° C.). Final assay mixtures contained 7 μg of membrane protein in 10 mM HEPES acid, 10 mM HEPES salt, pH 7.4, 100 mM NaCl, 3 mM MgCl2, 10 μM GDP and 10 μg/ml saponin. Total reaction volume was […] Reactions were terminated by rapid filtration through Unifilter-96 GF/B filter plates (Packard, Meriden, Conn.) using a 96-well Packard filtermate harvester. Filters were washed 6 times with ice-cold 10 mM NaH2PO4/10 mM Na2HPO4, pH 7.4. Filters were then air-dried, and 40 μl of liquid scintillation cocktail (Microscint-O) was added to each well. Membrane-bound radioactivity was counted in a Microplate Scintillation and Luminescence Counter from Packard.
obtained in the presence of EC20 of mGluR2 agonist glutamate to determine positive allosteric modulation (PAM)—were generated using the Lexis software interface (developed at J&J). Data were calculated as % of the control glutamate response, defined as the maximal response that is generated upon addition of glutamate alone. Sigmoid concentration-response curves plotting these percentages versus the log concentration of the test compound were analyzed using non-linear regression analysis. The concentration producing half-maximal effect is then calculated as EC50.
All compounds were tested in presence of mGluR2 agonist, glutamate at a predetermined EC20 concentration, to determine positive allosteric modulation (GTPγS-PAM). pEC50 values were calculated from a concentration-response experiment of at least 10 concentrations.

male Wiga Wistar rats = test: Conditioned avoidance response (CAR) test; format: in vivo; details: Rattus norvegicus, po, criterion median avoidance latency >8 s, read-out: ED50 CAR-Inh.
Text: The apparatus consisted of an inner box surrounded by an outer box. The inner box was composed of four walls of transparent, synthetic material (length×width×height: 30×30×30 cm), an open top, and a grid floor made of 15 pairs of iron bars (2 mm diameter; 6 mm inter-bar distance). Odd and even bars were connected with a source of alternative current (1.0 mA; Coulbourn Instruments Solid State Shocker/Distributor), which could be interrupted by a switch. The outer box was composed of the same material (length×width×height: 40×40×36 cm), also with an open top, with a distance of 5 cm between the inner and outer box on all sides. To decrease the amount of environmental stimuli, three walls of the outer box were made non-transparent. The front wall was left transparent to allow the necessary inspection of the animal during the test. The upper edge of the outer and inner box served as a target for the rats on which to jump with fore- and hind-paws, respectively.
From their arrival in the laboratory on the experimental day, male Wiga Wistar rats (230±30 g) were housed in individual cages provided with bedding material.
Latency to avoidance was recorded. The median avoidance response obtained over the three experimental sessions for each rat were used for further calculations.

male NMRI mice [2] = test: d-Amphetamine-induced hyperlocomotion in mice; format: in vivo; details: Mus musculus, d-amphetamine 5 mg/kg s.c., compound administered orally, read-out: ED50 Amp.-Inh.
Procedure: as §1, with “An infrared sensitive tube camera and a white light source (in arena: 4-7 LUX) were mounted to the ceiling above the observation chamber to record and input activity to a computer.” left out, “Data were then exported to data management systems for further analysis and reporting.” left out
Test compound or solvent was administered at a pre-defined time before measurement (standard: 30 min) to male NMRI mice that were challenged with d-amphetamine (5 mg/kg, s.c.) 30 min before measurement. Activity was measured for a period of 30 min.

For `N[C@@]1(C(=O)O)CS(=O)(=O)[C@H]2[C@H](C(=O)O)[C@H]21` [LY404039, reference compound], the “effect on REM sleep (in words)” value (rats) was “affect REM sleep” and the “effect on memantine-induced brain glucose metabolism / 2DG uptake (in words)” value (Male mice (C57BL/6); mouse brain) was “inhibited”.

Work on `Cc1cc(Oc2ccc(-c3ccn4c(CC(F)(F)F)nnc4c3Cl)cc2F)ccn1` [Co. No. 1, 7-[3-Fluoro-4-(2′-methyl-pyridin-4-yloxy)-phenyl]-8-chloro-3-(2,2,2-trifluoro-ethyl)-1,2,4-triazolo[4,3-a]pyridine] yielded an ED50 (male NMRI mice [1]) of 18.7 mg/kg, an EC50 (human mGluR2 receptor) of 209 nM and a melting point of 130.1 °C. For the same compound, the “L.A.D. (lowest active dose) for significant (p<0.05) reduction of 2DG uptake in the hippocampus compared to memantine response” value (Male mice (C57BL/6)) was >10 mg/kg, the ED50 (male Wiga Wistar rats; compound administered orally) was 21.4 mg/kg and the ED50 (male Wiga Wistar rats; not marked as oral) was 12.3 mg/kg.

In the case of `Cc1cc(Oc2ccc(-c3ccn4c(CC5CC5)nnc4c3C(F)(F)F)cc2F)ccn1` [Co. No. 2, 7-[3-Fluoro-4-(2′-methyl-pyridin-4-yloxy)-phenyl]-8-trifluoromethyl-3-cyclopropylmethyl-1,2,4-triazolo[4,3-a]pyridine], the ED50 (male NMRI mice [1]) is reported as 12.3 mg/kg, the EC50 (human mGluR2 receptor) is reported as 50.1 nM and the “L.A.D. (lowest active dose) for significant (p<0.05) reduction of 2DG uptake in the hippocampus compared to memantine response” value (Male mice (C57BL/6)) is reported as 10 mg/kg. The ED50 (male Wiga Wistar rats; compound administered orally) was 21.4 mg/kg, the ED50 (male Wiga Wistar rats; not marked as oral) was 18.7 mg/kg and the ED50 (male NMRI mice [2]) was 28.3 mg/kg.
